Measured values from patent publication US20100099737A1, “COMPOSITIONS AND METHODS FOR TREATING MYELOSUPPRESSION” (priority 2006, published 2010).

Key:
Format in all cases: cell-based, human
[1] = test system: TF1 cells; assay: Survival of siRNA-transfected TF1 cells without growth factors, viable cells by trypan blue exclusion; conditions: absence of growth factors, counted daily by trypan blue exclusion, vs siNS, FIG. 1G
Description: (§1) TF1 cells transfected with siSHIP (triangles) or siNS (squares) were cultured in the absence of growth factors and the total number of viable cells counted daily by trypan blue exclusion (FIG. 1G), TF1 cells were cultured in the presence of increasing concentrations of the growth promoting cytokine IL-5, 2 days after siRNA transfection. Proliferation of siSHIP (diamonds) and control siNS (solid diamonds) transfected TF-1 cells was measured by [^3H]-thymidine incorporation (FIG. 1H).

[2] = test system: phospho PKB (Ser 473); assay: Immunoblot of PKB / phospho PKB (Ser 473) in siRNA-transfected TF1 cells stimulated with GM-CSF; conditions: vs siNS, FIG. 1F
Description: TF1 cells transfected with siSHIP ([…], SEQ ID NO: 11) or siNS were stimulated with the cytokine GM-CSF for the indicated length of time.

[3] = test system: TF1 hemopoietic progenitor cell line; assay: Resistance of siRNA-transfected TF1 cells to chemotherapy drugs, [3H]-thymidine incorporation; conditions: 4 days after transfection, cisplatin, doxorubicin and taxotere, complete growth media, read 2 days later, vs control siRNA, FIG. 2
Description: The TF1 hemopoietic progenitor cell line was transfected with SHIP1 siRNA or control siRNA as in FIG. 1. After 4 days, the cells were assessed at the indicated concentrations of cisplatin, doxorubicin and taxotere in the presence of complete growth media, [^3H]-thymidine incorporation was measured 2 days later.

[4] = test system: TF1 cells; assay: Proliferation of siRNA-transfected TF1 cells with IL-5, [3H]-thymidine incorporation; conditions: sub-optimal levels of IL-5, 2 days after siRNA transfection, vs siNS, FIG. 1H
Description: as §1

What does the source list for “siSHIP: siRNA to human SHIP1 mRNA (NM_001017915), position 2437, AAGAGTCAGGAAGGAGAAAAT (SEQ ID NO: 11) (listed as DNA, chemistry not given here)”?
survival (total number of viable cells) [1]: considerably increased survival; activation of the PIP3 dependent kinase PKB (phospho PKB Ser 473) [2]: enhanced the activation; resistance to chemotherapy drugs ([3H]-thymidine incorporation) [3]: significantly more resistant; proliferation ([3H]-thymidine incorporation) [4]: considerably increased
